# Measured values reported in patent publication US6667387B1, “HCV core peptides” (priority 1992, dated 2003).
# Ends that are not written are not given here. * marks the point of attachment. Biotin = O=C1N[C@H]2[C@H](CS[C@H]2CCCCC(=O)*)N1
# Tests used:
# Format in all cases: binding, human
# [1] = system: antibodies in antisera from HIV-1 infected persons; test: ELISA with HIV-1 antibody-positive sera (biotinylated peptides on streptavidin- or avidin-coated plates, unbiotinylated peptides coated directly)
# Method: (§1) Where peptides were to be coated directly, stock solutions of the peptides were diluted in sodium carbonate buffer, pH 9.6 and used to coat polystyrene microtiter plates at a peptide concentration of 2 to 5 micrograms per milliliter for 1 hour at 37° C.
# (§2) In cases where biotinylated peptides were to be evaluated, plates were first coated with streptavidin in sodium carbonate buffer, pH 9.6 at a concentration of 3 micrograms per milliliter for 1 hour at 37° C. The plates were then washed to remove excess, unbound protein. A working solution of the biotinylated peptide at 1 microgram per milliliter in sodium carbonate buffer was then added to the wells of the microtiter plate and incubated for 1 hours at 37° C.
# (§3) Once the plates had been coated with antigen, any remaining free binding sites on the plastic were blocked with casein. After washing, a dilution of the appropriate antisera, usually 1:100, was added to the wells of the plates and incubated for 1 hour at 37° C.
# (§4) After washing to remove unbound material, specific antibody binding was detected by incubating the plates with goat anti-human immunoglobulin antibodies conjugated to the enzyme horseradish peroxidase. Following removal of unbound conjugate by washing, a solution containing H2O2 and 3,3′,5,5′-tetramethylbenzidine was added.
# (§5) Reactions were stopped after a suitable interval by addition of sulfuric acid. […] Absorbance measurements were made at a wavelength of 450 nanometers and all data are expressed as an optical density value at this wavelength.
# Experiments were performed to evaluate antibody recognition of short, 10 amino acid-long, N-acetylated peptides corresponding to other contained within the transmembrane proteins of HIV-1 and HIV-2. […] The peptides used for the comparison were as follows:
# Antibody binding to these peptides was compared to antibody binding to the unibiotinylated peptides which were coated directly onto microtiter plates.
# In order to evaluate antibody recognition of these two peptides, the peptides were bound individually to streptavidin-coated microtiter plates and tested using a panel of antisera from HIV-1 seropositive donors.
# (§6) To determine how well biotinylated peptides would function in a mixture when bound to streptavidin- or avidin-coated plates, two mixtures were made of the N-terminally biotinylated versions of the HIV-1 peptides TM-HIV-1 (hereabove referred to as 1a.1) and V3-nm (hereabove referred to as 1b.4), the HIV-2 peptide TM-HIV-2 (hereabove referred to as 2a), and the hepatitis C virus peptides II, IX, and XVIII. Mixture A contained each of the six biotinylated peptides at a concentration of 1 microgram per milliliter (6 micrograms per milliliter peptide, total) while in mixture B, each peptide was present at a concentration of 0.1 microgram per milliliter (0.6 microgram per milliliter peptide, total). The individual peptides were coated at a concentration of 1 microgram per milliliter. For purposes of comparison, mixtures A and B were also coated directly onto the wells of a microtiter plate. Samples from HIV-1, HIV-2, and HCV-seropositive donors were tested and compared to sera from seronegative blood donors. A cut-off absorbance value of 0.250 was used to determine whether a reaction was positive or negative. Absorbance values equal or greater than 0.250 were considered positive while absorbance values below this value were considered negative.
# A spacer consisting of two glycine residues was added to the amino terminus.
# [2] = system: antibodies in antisera from HIV-2 infected persons; test: ELISA with HIV-2 antibody-positive sera (biotinylated peptides on streptavidin- or avidin-coated plates, unbiotinylated peptides coated directly)
# Method: as §1, §2, §3, §4, §5
# The biotinylated peptides were loaded onto microtiter plates which had been coated with streptavidin. Antibody binding to these peptides was compared to antibody binding to the unibiotinylated peptides which were coated directly onto microtiter plates. It is evident that the biotinylated peptides from the HIV-1 or HIV-2 transmembrane proteins bound to streptavidin are recognized very well by antisera from HIV-1 or HIV-2 infected persons respectively. This is in contrast to the unbiotinylated versions of these peptides coated directly onto the polystyrene plates.
# as §6
# Two glycine residues were added at the N-terminus of each peptide to serve as a spacer and a biotin was coupled to the α-amino group of the resulting N-terminal glycine. The peptides were bound to streptavidin and coated in the wells of microwell plates. HIV-2 antibody-positive sera were used to evaluate these two peptides in an ELISA.
# [3] = system: HIV-1 anti-V3 loop antibodies in sera; test: Line immunoassay (LIA) with HIV-1 gp120 V3 loop peptides; conditions: for recognition of peptide, % of sera: Table 15
# Excerpt: In order to determine the general diagnostic value of the V3 loop region of gp120, nine peptides derived from this region of nine different HIV-1 isolates were synthesized and included in a LIA. All nine peptides were provided with a Gly-Gly spacer and an N-terminal biotin. The aligned peptides (one-letter amino acid code) sequences are as follows: (SEQ ID NOs: 154-162, respectively)
# The peptides were mixed with streptavidin in a slight molar excess over biotin binding sites and the peptide:streptavidin complexes were separated from unbound material over Sephadex G-25. Material eluting in the void volume was used in the preparation of the LIA.
# A total of 332 sera were tested which had been obtained from various geographical regions. […] The reactions of the various lines were evaluated as positive (i) or negative (o) (data not shown).
# In total, 307 of the 332 sera gave a reaction to at least one peptide on the V3-loop LIA. […] The total number of positive sera tested was therefore 326. […] There were, however, significant geographical differences.
# [4] = Table 8, serum 3990 (HIV-1), Avidin
# [5] = Table 8, serum DV (HIV-1), Avidin
# [6] = Table 8, serum PL (HIV-1), Avidin
# [7] = Table 8, serum YS (HIV-1), Avidin
# [8] = Table 8, serum 1400 (HIV-2), Avidin
# [9] = Table 8, serum AG (HIV-2), Avidin
# [10] = Table 14, HIV-V3 positive sera, 307
# [11] = Table 14, gp120 positive sera, COUNT 326
substance,measurement,setting,value
IIPDREVLYREFDEMEECSQ,optical density (450 nm),[1]; [4],0.066
same,optical density (450 nm),[1]; [5],0.049
same,optical density (450 nm),[1]; [6],0.056
same,optical density (450 nm),[1]; [7],0.049
same,optical density (450 nm),[2]; [8],0.052
same,optical density (450 nm),[2]; [9],0.064
Bio-Gly-Gly-Tyr-Asn-Lys-Arg-Lys-Arg-Ile-His-Ile-Gly-Pro-Gly-Arg-Ala-Phe-Tyr-Thr-Thr-Lys-Asn-Ile-Ile-Gly-NH2 (Biotin-GGYNKRKRIHIGPGRAFYTTKNIIG-NH2) [V3-mn Bio],optical density (450 nm),"[1]; Table 2, sample 266",2.591
same,"optical density (450 nm), off scale","[1]; Table 2, sample 3990",overflow* (Absorbance value greater than 3.000)
same,optical density (450 nm),"[1]; Table 2, sample 4436",2.268
same,optical density (450 nm),"[1]; Table 2, sample 4438",2.554
same,optical density (450 nm),"[1]; Table 2, sample DV",2.881
same,optical density (450 nm),"[1]; Table 2, sample MM",2.542
same,"optical density (450 nm), off scale","[1]; Table 2, sample OOST 4",overflow* (Absorbance value greater than 3.000)
same,optical density (450 nm),"[1]; Table 2, sample OOST 6",2.355
same,"optical density (450 nm), off scale","[1]; Table 2, sample OOST 8",overflow* (Absorbance value greater than 3.000)
same,optical density (450 nm),"[1]; Table 2, sample PL",2.351
same,"optical density (450 nm), off scale","[1]; Table 2, sample VE",overflow* (Absorbance value greater than 3.000)
same,optical density (450 nm),"[1]; Table 2, sample YS",2.784
same,optical density (450 nm),"[1]; Table 3, serum 3990, peptide bound to avidin",1.854
same,optical density (450 nm),"[1]; Table 3, serum 3990, peptide bound to streptavidin",1.391
same,optical density (450 nm),"[1]; Table 3, serum 4436, peptide bound to avidin",1.519
same,optical density (450 nm),"[1]; Table 3, serum 4436, peptide bound to streptavidin",0.596
same,optical density (450 nm),"[1]; Table 3, serum DV, peptide bound to avidin",1.748
same,optical density (450 nm),"[1]; Table 3, serum DV, peptide bound to streptavidin",1.041
same,optical density (450 nm),"[1]; Table 3, serum PL, peptide bound to avidin",0.983
same,optical density (450 nm),"[1]; Table 3, serum PL, peptide bound to streptavidin",0.222
same,optical density (450 nm),"[1]; Table 3, serum VE, peptide bound to avidin",1.908
same,optical density (450 nm),"[1]; Table 3, serum VE, peptide bound to streptavidin",1.526
same,optical density (450 nm),"[1]; Table 3, serum YS, peptide bound to avidin",1.721
same,optical density (450 nm),"[1]; Table 3, serum YS, peptide bound to streptavidin",1.236
same,optical density (450 nm),[1]; [4],2.319
same,optical density (450 nm),[1]; [5],2.340
same,optical density (450 nm),[1]; [6],1.321
same,optical density (450 nm),[1]; [7],2.201
same,optical density (450 nm),[2]; [8],0.055
same,optical density (450 nm),[2]; [9],0.068
same,% Reactive,[3]; [10],90%
same,"Total SUM (reactive sera), printed on the line COUNT",[3]; [10],275
same,% Reactive,[3]; [11],84%
same,Total SUM (reactive sera),[3]; [11],275
same,"recognition of peptide, % of sera",[3]; AFRICAN sera,85%
same,"recognition of peptide, % of sera",[3]; BRAZILIAN sera,78%
same,"recognition of peptide, % of sera",[3]; EUROPEAN sera,97%
PQRKTKRNTNRRPQDVKFPG,optical density (450 nm),[1]; [4],0.054
same,optical density (450 nm),[1]; [5],0.047
same,optical density (450 nm),[1]; [6],0.052
same,optical density (450 nm),[1]; [7],0.048
same,optical density (450 nm),[2]; [8],0.121
same,optical density (450 nm),[2]; [9],0.081
ETWKKPDYEPPVVHGCPLPP,optical density (450 nm),[1]; [4],0.056
same,optical density (450 nm),[1]; [5],0.047
same,optical density (450 nm),[1]; [6],0.052
same,optical density (450 nm),[1]; [7],0.049
same,optical density (450 nm),[2]; [8],1.362
same,optical density (450 nm),[2]; [9],0.058
Bio-Gly-Gly-Gly-Ile-Trp-Gly-Cys-Ser-Gly-Lys-Leu-Ile-Cys-NH2 (Biotin-GGGIWGCSGKLIC-NH2; cysteine pairing not given here) [TM-HIV-1 Bio],optical density (450 nm),"[1]; Table 1, serum 0724, HIV-1 positive",2.570
same,optical density (450 nm),"[1]; Table 1, serum PL, HIV-1 positive",1.559
same,optical density (450 nm),"[1]; Table 1, serum VE, HIV-1 positive",2.551
same,optical density (450 nm),"[1]; Table 1, serum YEMO, HIV-1 positive",2.357
same,optical density (450 nm),"[1]; Table 1, serum mm, HIV-1 positive",2.579
same,optical density (450 nm),"[1]; Table 6, serum 0369/87, HIV positive",2.042
same,optical density (450 nm),"[1]; Table 6, serum 0724, HIV positive",2.291
same,optical density (450 nm),"[1]; Table 6, serum 1164, HIV positive",1.919
same,optical density (450 nm),"[1]; Table 6, serum 1252, HIV positive",2.356
same,optical density (450 nm),"[1]; Table 6, serum 2049, HIV positive",2.058
same,optical density (450 nm),"[1]; Table 6, serum 3990, HIV positive",1.870
same,optical density (450 nm),"[1]; Table 6, serum 4436, HIV positive",2.110
same,optical density (450 nm),"[1]; Table 6, serum 4438, HIV positive",1.697
same,optical density (450 nm),"[1]; Table 6, serum DV, HIV positive",1.579
same,optical density (450 nm),"[1]; Table 6, serum MM, HIV positive",2.308
same,optical density (450 nm),"[1]; Table 6, serum OOST 6, HIV positive",2.003
same,optical density (450 nm),"[1]; Table 6, serum OOST 7, HIV positive",2.027
same,optical density (450 nm),"[1]; Table 6, serum OOST 8, HIV positive",2.237
same,optical density (450 nm),"[1]; Table 6, serum OOST 9, HIV positive",2.222
same,optical density (450 nm),"[1]; Table 6, serum PL, HIV positive",1.849
same,optical density (450 nm),"[1]; Table 6, serum VCM, HIV positive",2.263
same,optical density (450 nm),"[1]; Table 6, serum VE, HIV positive",2.240
same,optical density (450 nm),[1]; [4],1.602
same,optical density (450 nm),[1]; [5],1.329
same,optical density (450 nm),[1]; [6],1.974
same,optical density (450 nm),[1]; [7],0.046
same,optical density (450 nm),"[2]; Table 1, serum 53-3, HIV-2 positive",0.000
same,optical density (450 nm),"[2]; Table 1, serum 1400, HIV-2 positive",0.000
same,optical density (450 nm),"[2]; Table 1, serum AG, HIV-2 positive",0.000
same,optical density (450 nm),[2]; [8],0.051
same,optical density (450 nm),[2]; [9],0.054
